In assay [1] the test system is Pseudomonas aeruginosa (IMP-18). Put plainly: Broth microdilution antibiotic susceptibility (MicroScan dehydrated panels, NCCLS criteria). The class given is cell-based. Conditions: for MIC: Pseudomonas aeruginosa, read-out: Microdilution MICs. The protocol:
The carbapenem-resistant P. aeruginosa isolate investigated in this study was recovered from the tracheal aspirate of a motorcycle accident victim in the southwestern United States.
The isolate was identified by the Phoenix system (Becton Dickinson Diagnostic Systems, Sparks, Md.). Antibiotic susceptibility was determined by broth microdilution method with investigational dehydrated panels provided by Dade Behring MicroScan (Sacramento, Calif.) according to the manufacturer's recommendations and interpreted according to National Committee for Clinical Laboratory Standards (NCCLS) criteria (National Committee for Clinical Laboratory Standards, “Performance Standards for Antimicrobial Susceptibility Testing, Fourteenth informational supplement 24, Wayne, Pa. (2004)).
(In broth dilution the organism is exposed to a series of concentrations in liquid medium.)

Assay [2] has the same test system. Put plainly: Etest metallo-beta-lactamase strip (imipenem with/without EDTA). It counts as cell-based. The source says: Metallo-beta-lactamase production was phenotypically investigated by using the Etest metallo-beta-lactamase strip (AB BIODISK, Solna, Sweden).
[3] abbreviates: carbapenem-resistant P. aeruginosa clinical isolate producing IMP-18, broth microdilution.

The text below walks through data of patent US20090317807A1, “Primers for Use in Detecting Metallo-Beta-Lactamases” (priority 2006, published 2009).

In brackets after ≈: the same amount, converted by molar mass. Some results are limits rather than exact numbers.

Consider `CN(C)c1ccc(O)c2c1C[C@H]1C[C@H]3[C@H](N(C)C)C(O)=C(C(N)=O)C(=O)[C@@]3(O)C(O)=C1C2=O` [Minocycline], for which the MIC in assay [1] (setting [3]) is over 128 mg/L.
Regarding `CO/N=C(\C(=O)N[C@@H]1C(=O)N2C(C(=O)[O-])=C(C[N+]3(C)CCCC3)CS[C@H]12)c1csc(N)n1` [Cefepime], the MIC in assay [1] (setting [3]) was over 64 mg/L.
Consider Polymyxin B, for which the “Microdilution MICs” value in assay [1] (setting [3]) came out at 4 µg/mL.
For the compound `CN(C)c1cc(NC(=O)CNC(C)(C)C)c(O)c2c1C[C@H]1C[C@H]3[C@H](N(C)C)C(O)=C(C(N)=O)C(=O)[C@@]3(O)C(O)=C1C2=O` [Tigecycline], the MIC in assay [1] came out at 32 mg/L (≈ 54.6 µM).
Take `CC(C)(O/N=C(\C(=O)N[C@@H]1C(=O)N2C(C(=O)[O-])=C(C[n+]3ccccc3)CS[C@H]12)c1csc(N)n1)C(=O)O` [Ceftazidime]: the MIC in assay [1] (setting [3]) is over 64 mg/L.
With `C[C@H]1COc2c(N3CCN(C)CC3)c(F)cc3c(=O)c(C(=O)O)cn1c23` [Levofloxacin], the MIC in assay [1] (setting [3]) is over 16 mg/L.
The same measure, in the same setting: the value for `C[C@H]1[C@H](NC(=O)/C(=N\OC(C)(C)C(=O)O)c2csc(N)n2)C(=O)N1S(=O)(=O)O` [Aztreonam] was 32 mg/L (≈ 73.5 µM).
Regarding `CO/N=C(\C(=O)N[C@@H]1C(=O)N2C(C(=O)O)=C(CSc3nc(=O)c(=O)[nH]n3C)CS[C@H]12)c1csc(N)n1` [Ceftriaxone], the MIC in assay [1] (setting [3]) was over 64 mg/L.
Gentamicin: the “Microdilution MICs” value in assay [1] (setting [3]) was over 32 µg/mL.
For `C[C@@H](O)[C@H]1C(=O)N2C(C(=O)O)=C(SCCN=CN)C[C@H]12` [Imipenem], the MIC in assay [1] (setting [3]) was 64 mg/L (≈ 214 µM); in assay [2] (Pseudomonas aeruginosa, without EDTA), at least 256 mg/L. In addition, the “MIC of imipenem by Etest in the presence of EDTA” value in assay [2] (in the presence of EDTA) was determined as 8 mg/L. For the same compound, the “fold reduction in the MIC of imipenem in the presence of EDTA” value in assay [2] (with vs without EDTA) is recorded as at least 32 fold.
As to `NCC[C@H](O)C(=O)N[C@@H]1C[C@H](N)[C@@H](O[C@H]2O[C@H](CN)[C@@H](O)[C@H](O)[C@H]2O)[C@H](O)[C@H]1O[C@H]1O[C@H](CO)[C@@H](O)[C@H](N)[C@H]1O` [Amikacin], in assay [1] (setting [3]), the MIC is 64 mg/L (≈ 109 µM).
